Tests used:
[1] = biological target: T1, PAC1 (Homo sapiens, UniProt P41586); assay: GPCR Profiler; format: cell-based
T1 construct: host or cells: Chem-1 cells with Gα15

[2] = biological target: T2, MRCKB (Homo sapiens, UniProt Q9Y5S2); assay: KinomeScan; format: binding; settings: read-out: % Control
T2 construct: purchased DiscoveRx

[3] = biological target: T3, EGFR(L747-E749del, A750P) (Homo sapiens, UniProt P00533, A750P/DEL747-749); assay: KinomeScan; format: binding; settings: read-out: % Control
T3 construct: purchased DiscoveRx (Fremont, CA), KinomeScan service

[4] = biological target: T4, AAK1 (Homo sapiens, UniProt Q2M2I8); assay: KinomeScan; format: binding; settings: read-out: % Control
T4 construct: purchased DiscoveRx

[5] = biological target: T5, CAMK1D (Homo sapiens, UniProt Q8IU85); assay: KinomeScan; format: binding; settings: read-out: % Control
T5 construct: purchased DiscoveRx (KinomeScan service)

[6] = biological target: T6, A1 (Homo sapiens, UniProt P30542); assay: GPCR Profiler; format: cell-based
T6 construct: host or cells: Chem-1 cells with promiscuous Gα15
T6 sequence (P30542 whole entry): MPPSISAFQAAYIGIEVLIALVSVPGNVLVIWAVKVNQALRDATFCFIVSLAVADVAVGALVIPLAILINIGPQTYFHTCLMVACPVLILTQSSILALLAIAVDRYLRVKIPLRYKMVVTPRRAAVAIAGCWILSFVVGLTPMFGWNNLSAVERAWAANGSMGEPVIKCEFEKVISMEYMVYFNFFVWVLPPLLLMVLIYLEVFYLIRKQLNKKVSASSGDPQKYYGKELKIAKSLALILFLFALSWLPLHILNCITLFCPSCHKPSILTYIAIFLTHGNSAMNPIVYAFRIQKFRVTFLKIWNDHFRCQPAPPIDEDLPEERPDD

[7] = biological target: CLK4 (Homo sapiens, UniProt Q9HAZ1); assay: KinomeScan; format: binding; settings: read-out: % Control
[8] = biological target: T7, H1 (Homo sapiens, UniProt P35367); assay: GPCR Profiler; format: cell-based
T7 construct: host or cells: Chem-1 cells with promiscuous Gα15
T7 sequence (P35367 whole entry): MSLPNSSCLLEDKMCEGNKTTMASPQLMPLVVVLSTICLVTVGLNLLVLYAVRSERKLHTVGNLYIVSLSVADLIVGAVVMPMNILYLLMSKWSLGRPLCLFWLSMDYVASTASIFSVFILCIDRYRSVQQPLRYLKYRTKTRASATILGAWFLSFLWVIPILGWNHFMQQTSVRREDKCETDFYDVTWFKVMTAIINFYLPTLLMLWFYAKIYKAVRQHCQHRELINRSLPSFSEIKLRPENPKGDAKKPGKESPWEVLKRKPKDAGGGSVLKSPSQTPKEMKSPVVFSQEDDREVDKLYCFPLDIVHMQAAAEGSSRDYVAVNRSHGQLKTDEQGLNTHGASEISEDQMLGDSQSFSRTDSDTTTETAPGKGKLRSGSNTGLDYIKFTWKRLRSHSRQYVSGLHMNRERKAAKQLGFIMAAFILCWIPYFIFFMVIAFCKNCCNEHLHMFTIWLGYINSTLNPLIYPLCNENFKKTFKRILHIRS

[9] = biological target: T8, FGFR1 (Homo sapiens, UniProt P11362); assay: KinomeScan; format: binding; settings: read-out: % Control
T8 construct: purchased DiscoveRx (Fremont, CA)
T8 sequence (P11362 22-822): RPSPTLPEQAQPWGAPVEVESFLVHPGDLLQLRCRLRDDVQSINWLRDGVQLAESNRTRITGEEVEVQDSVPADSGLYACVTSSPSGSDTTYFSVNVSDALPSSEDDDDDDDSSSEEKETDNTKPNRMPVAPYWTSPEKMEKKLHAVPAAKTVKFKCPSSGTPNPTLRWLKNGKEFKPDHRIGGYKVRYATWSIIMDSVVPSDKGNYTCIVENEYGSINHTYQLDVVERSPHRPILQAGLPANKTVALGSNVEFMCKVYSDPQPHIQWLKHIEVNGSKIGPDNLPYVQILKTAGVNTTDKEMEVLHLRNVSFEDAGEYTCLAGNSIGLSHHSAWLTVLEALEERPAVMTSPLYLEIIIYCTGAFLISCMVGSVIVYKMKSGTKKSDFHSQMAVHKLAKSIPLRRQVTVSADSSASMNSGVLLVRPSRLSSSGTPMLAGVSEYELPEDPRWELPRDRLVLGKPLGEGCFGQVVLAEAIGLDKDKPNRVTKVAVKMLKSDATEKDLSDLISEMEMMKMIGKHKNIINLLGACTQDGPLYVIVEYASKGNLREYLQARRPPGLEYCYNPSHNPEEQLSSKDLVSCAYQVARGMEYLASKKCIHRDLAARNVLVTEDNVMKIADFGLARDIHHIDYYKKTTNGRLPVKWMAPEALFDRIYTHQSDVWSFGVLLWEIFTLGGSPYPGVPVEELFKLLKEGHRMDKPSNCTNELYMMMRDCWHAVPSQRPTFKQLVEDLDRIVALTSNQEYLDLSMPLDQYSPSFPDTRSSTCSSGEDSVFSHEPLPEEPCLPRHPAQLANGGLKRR

[10] = biological target: T9, 5-HT4B (Homo sapiens, UniProt Q13639); assay: GPCR Profiler; format: cell-based
T9 construct: host or cells: Chem-1 cells with promiscuous Gα15
T9 sequence (Q13639 whole entry): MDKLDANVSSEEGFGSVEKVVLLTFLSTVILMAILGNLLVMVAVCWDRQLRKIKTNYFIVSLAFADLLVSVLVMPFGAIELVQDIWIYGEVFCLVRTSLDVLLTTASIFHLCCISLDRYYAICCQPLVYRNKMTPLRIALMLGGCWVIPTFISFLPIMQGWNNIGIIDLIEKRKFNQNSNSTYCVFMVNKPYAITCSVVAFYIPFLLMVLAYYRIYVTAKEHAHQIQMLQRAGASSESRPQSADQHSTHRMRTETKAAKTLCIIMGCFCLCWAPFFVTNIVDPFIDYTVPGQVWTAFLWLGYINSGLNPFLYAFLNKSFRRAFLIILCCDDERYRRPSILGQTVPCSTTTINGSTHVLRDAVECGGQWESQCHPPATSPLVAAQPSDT

[11] = biological target: DAPK1 (Homo sapiens, UniProt P53355); assay: KinomeScan; format: binding; settings: read-out: % Control
[12] = biological target: T10, V1B (Homo sapiens, UniProt P47901); assay: GPCR Profiler; format: cell-based
T10 construct: host or cells: Chem-1 cells with Gα15
T10 sequence (P47901 whole entry): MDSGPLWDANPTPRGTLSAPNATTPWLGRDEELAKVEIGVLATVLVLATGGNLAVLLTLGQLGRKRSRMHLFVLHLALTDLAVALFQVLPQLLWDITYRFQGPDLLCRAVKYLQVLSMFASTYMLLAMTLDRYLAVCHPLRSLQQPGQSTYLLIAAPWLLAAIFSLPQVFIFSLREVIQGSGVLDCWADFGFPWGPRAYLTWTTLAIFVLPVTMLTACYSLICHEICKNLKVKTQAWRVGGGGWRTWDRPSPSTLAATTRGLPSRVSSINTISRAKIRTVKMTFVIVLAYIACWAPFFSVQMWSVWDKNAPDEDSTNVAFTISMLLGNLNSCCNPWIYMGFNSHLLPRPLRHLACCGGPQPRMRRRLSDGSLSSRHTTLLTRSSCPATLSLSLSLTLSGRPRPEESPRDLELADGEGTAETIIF

[13] = biological target: T11, MET (Homo sapiens, UniProt P08581); assay: KinomeScan; format: binding; settings: read-out: % Control
T11 construct: purchased DiscoveRx (Fremont, CA)

[14] = biological target: T12, ABL1(E255K)-phosphorylated (Homo sapiens, UniProt P00519, E255K); assay: KinomeScan; format: binding; settings: read-out: % Control
T12 construct: purchased DiscoveRx

[15] = biological target: T13, ABL1(Q252H)-nonphosphorylated (Homo sapiens, UniProt P00519, Q252H); assay: KinomeScan; format: binding; settings: read-out: % Control
T13 construct: purchased DiscoveRx

[16] = biological target: T14, IP1 (Homo sapiens, UniProt P43119); assay: GPCR Profiler; format: cell-based
T14 construct: host or cells: Chem-1 cells with promiscuous Gα15
T14 sequence (P43119 whole entry): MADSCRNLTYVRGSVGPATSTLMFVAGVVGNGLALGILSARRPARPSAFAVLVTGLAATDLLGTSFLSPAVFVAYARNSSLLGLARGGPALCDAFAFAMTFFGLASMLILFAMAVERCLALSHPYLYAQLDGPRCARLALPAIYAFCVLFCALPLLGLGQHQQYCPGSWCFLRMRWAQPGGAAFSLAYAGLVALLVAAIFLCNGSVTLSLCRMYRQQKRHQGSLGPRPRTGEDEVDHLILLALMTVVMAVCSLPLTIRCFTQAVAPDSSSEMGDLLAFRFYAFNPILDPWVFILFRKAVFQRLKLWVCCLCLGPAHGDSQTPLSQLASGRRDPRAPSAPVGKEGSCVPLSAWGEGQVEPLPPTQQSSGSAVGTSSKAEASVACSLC

[17] = biological target: T15, PTH1 (Homo sapiens, UniProt Q03431); assay: GPCR Profiler; format: cell-based
T15 construct: host or cells: Chem-1 cells with Gα15
T15 sequence (Q03431 27-593): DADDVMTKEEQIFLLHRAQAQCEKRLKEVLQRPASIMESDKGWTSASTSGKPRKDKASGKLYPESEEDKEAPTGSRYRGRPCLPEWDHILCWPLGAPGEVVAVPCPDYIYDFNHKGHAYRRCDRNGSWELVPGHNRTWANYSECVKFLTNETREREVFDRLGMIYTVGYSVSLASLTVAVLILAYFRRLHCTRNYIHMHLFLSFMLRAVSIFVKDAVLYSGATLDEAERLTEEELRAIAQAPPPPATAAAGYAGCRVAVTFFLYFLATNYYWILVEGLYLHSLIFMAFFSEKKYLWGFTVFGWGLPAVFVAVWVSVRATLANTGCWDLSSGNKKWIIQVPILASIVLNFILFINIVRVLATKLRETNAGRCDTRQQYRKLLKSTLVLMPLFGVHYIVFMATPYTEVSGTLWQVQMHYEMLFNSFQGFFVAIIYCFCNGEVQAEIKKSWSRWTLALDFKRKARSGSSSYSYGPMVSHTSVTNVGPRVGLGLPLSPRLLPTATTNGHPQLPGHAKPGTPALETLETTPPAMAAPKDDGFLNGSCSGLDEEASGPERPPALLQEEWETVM

[18] = biological target: T16, ABL1(Q252H)-phosphorylated (Homo sapiens, UniProt P00519, Q252H); assay: KinomeScan; format: binding; settings: read-out: % Control
T16 construct: purchased DiscoveRx

[19] = biological target: T17, RET(V804L) (Homo sapiens, UniProt P07949, V804L); assay: KinomeScan; format: binding; settings: read-out: % Control
T17 construct: purchased DiscoveRx (Fremont, CA)

[20] = biological target: CSNK1G1 (Homo sapiens, UniProt Q9HCP0); assay: KinomeScan; format: binding; settings: read-out: % Control
[21] = biological target: T18, HPK1 (Homo sapiens, UniProt Q92918); assay: KinomeScan; format: binding; settings: read-out: % Control
T18 construct: purchased DiscoveRx (Fremont, CA)

[22] = biological target: T19, PIK3CB (Homo sapiens, UniProt P42338); assay: KinomeScan; format: binding; settings: read-out: % Control
T19 construct: purchased DiscoveRx (Fremont, CA)

[23] = biological target: T20, Y2 (Homo sapiens, UniProt P49146); assay: GPCR Profiler; format: cell-based
T20 construct: host or cells: Chem-1 cells expressing Galpha15
T20 sequence (P49146 whole entry): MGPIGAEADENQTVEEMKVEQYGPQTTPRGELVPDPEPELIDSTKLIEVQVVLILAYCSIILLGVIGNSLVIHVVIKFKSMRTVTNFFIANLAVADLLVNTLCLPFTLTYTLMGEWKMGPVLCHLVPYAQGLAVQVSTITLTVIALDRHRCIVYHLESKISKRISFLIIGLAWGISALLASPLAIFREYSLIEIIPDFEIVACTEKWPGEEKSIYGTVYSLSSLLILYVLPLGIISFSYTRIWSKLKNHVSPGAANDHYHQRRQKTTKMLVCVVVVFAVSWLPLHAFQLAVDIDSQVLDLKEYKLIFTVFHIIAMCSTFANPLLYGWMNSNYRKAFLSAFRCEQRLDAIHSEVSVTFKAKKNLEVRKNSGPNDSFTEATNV

[24] = biological target: T21, p38-beta (Homo sapiens, UniProt Q15759); assay: KinomeScan; format: binding; settings: read-out: % Control
T21 construct: purchased DiscoveRx
T21 sequence (Q15759 whole entry): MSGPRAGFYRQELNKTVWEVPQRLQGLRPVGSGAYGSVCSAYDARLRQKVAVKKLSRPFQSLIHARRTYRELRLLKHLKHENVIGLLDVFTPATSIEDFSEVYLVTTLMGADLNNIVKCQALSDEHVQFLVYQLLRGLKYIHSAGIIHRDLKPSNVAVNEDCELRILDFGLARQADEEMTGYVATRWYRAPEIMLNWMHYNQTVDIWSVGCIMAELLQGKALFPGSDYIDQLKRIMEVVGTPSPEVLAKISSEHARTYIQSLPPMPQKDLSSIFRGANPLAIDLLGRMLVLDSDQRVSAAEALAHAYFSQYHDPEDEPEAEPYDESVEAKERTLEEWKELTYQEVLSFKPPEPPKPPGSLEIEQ

[25] = biological target: T22, HCK (Homo sapiens, UniProt P08631); assay: KinomeScan; format: binding; settings: read-out: % Control
T22 construct: purchased DiscoveRx (Fremont, CA)

[26] = biological target: T23, CCR7 (Homo sapiens, UniProt P32248); assay: GPCR Profiler; format: cell-based
T23 construct: host or cells: Chem-1 cells with Gα15
T23 sequence (P32248 25-378, species assumed): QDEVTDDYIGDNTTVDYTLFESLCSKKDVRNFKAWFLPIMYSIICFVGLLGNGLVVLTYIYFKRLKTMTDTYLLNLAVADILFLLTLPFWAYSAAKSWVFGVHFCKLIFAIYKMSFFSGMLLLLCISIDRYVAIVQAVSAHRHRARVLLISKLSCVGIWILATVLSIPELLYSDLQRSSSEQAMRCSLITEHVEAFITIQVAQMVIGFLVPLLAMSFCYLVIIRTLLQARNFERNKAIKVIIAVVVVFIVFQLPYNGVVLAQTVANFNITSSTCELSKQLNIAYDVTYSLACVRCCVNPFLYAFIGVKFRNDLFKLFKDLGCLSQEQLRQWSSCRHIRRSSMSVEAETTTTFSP

[27] = biological target: T24, YANK3 (Homo sapiens, UniProt Q86UX6); assay: KinomeScan; format: binding; settings: read-out: % Control
T24 construct: purchased DiscoveRx

[28] = system: U87; assay: GSH-Glo Glutathione Assay; format: cell-based, human; settings: 2 μM OGM2 for 24 hours
Method: GSH-Glo™ Glutathione Assay (Promega™) was performed according to manufacturer protocol. Briefly, U87 cells were plated at 10,000 cells per well in a 96-well plate. The following day cells were treated with DMSO control vehicle or 2 μM OGM2 for 24 hours. Medium was removed from wells and 100 μl GSH-Glo™ Reagent was added to each well and incubated on a plate shaker for 30 minutes. One hundred microliters Luciferin Detection Reagent was added to each well and mixed briefly. After 15 minutes incubation, luminescence was detected on Promega™ GloMax luminometer.

[29] = system: zebrafish embryos; assay: Acridine orange stain of zebrafish embryos (cell death); settings: in vivo

T1 sequence (P41586 21-468): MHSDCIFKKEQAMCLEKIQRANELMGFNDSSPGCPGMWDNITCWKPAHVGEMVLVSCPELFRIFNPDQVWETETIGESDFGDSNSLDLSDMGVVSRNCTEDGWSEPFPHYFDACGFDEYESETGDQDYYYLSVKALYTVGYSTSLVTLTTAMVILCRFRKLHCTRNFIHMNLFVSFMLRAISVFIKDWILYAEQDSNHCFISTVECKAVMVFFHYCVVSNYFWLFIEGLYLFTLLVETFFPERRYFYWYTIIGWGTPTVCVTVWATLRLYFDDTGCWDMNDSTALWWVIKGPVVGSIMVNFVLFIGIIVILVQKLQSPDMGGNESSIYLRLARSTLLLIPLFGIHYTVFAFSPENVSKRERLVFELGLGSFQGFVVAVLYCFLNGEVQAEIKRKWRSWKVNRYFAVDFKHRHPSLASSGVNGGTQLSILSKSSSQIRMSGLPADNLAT

Question: For CCc1ccc2c(c1)C1(NN=C(c3cccc4ccccc34)S1)C(=O)N2 (centres unmarked) [OGM1, 5-ethyl-5′-naphthalen-1-ylspiro[1H-indole-3,2′-3H-1,3,4-thiadiazole]-2-one], which Antagonism ([1]; 10 uM) is on record?
Answer: 5.8

Question: And the Agonism ([1]; 12.5 uM)?
Answer: 0.9

Question: And the remaining binding at 10 µM [2]?
Answer: 100%

Question: And the remaining binding at 10 µM [3]?
Answer: 91%

Question: And the remaining binding at 10 µM [4]?
Answer: 100%

Question: What about the remaining binding at 10 µM [5] of the same compound?
Answer: 68%

Question: And the Antagonism ([6]; 10 uM)?
Answer: −13.9

Question: What about the Agonism ([6]; 12.5 uM) of the same compound?
Answer: 0.1

Question: And the remaining binding at 10 µM [7]?
Answer: 88%

Question: What about the Antagonism ([8]; 10 uM) of the same compound?
Answer: −17.2

Question: And the Agonism ([8]; 12.5 uM)?
Answer: 2.1

Question: What about the remaining binding at 10 µM [9] of the same compound?
Answer: 100%

Question: What about the Antagonism ([10]; 10 uM) of the same compound?
Answer: −24.1

Question: And the Agonism ([10]; 12.5 uM)?
Answer: 4.1

Question: What about the remaining binding at 10 µM [11] of the same compound?
Answer: 90%

Question: What about the Antagonism ([12]; 10 uM) of the same compound?
Answer: −2.8

Question: What about the Agonism ([12]; 12.5 uM) of the same compound?
Answer: −0.1

Question: And the remaining binding at 10 µM [13]?
Answer: 100%

Question: And the remaining binding at 10 µM [14]?
Answer: 77%

Question: And the remaining binding at 10 µM [15]?
Answer: 84%

Question: What about the Antagonism ([16]; 10 uM) of the same compound?
Answer: −2

Question: And the Agonism ([16]; 12.5 uM)?
Answer: −0.5

Question: And the Antagonism ([17]; 10 uM)?
Answer: 2.2

Question: And the Agonism ([17]; 12.5 uM)?
Answer: 0.7

Question: And the remaining binding at 10 µM [18]?
Answer: 94%

Question: And the remaining binding at 10 µM [19]?
Answer: 90%

Question: What about the remaining binding at 10 µM [20] of the same compound?
Answer: 82%

Question: And the remaining binding at 10 µM [21]?
Answer: 100%

Question: What about the remaining binding at 10 µM [22] of the same compound?
Answer: 100%

Question: What about the Antagonism ([23]; 10 uM) of the same compound?
Answer: −0.6

Question: What about the Agonism ([23]; 12.5 uM) of the same compound?
Answer: 2.5

Question: And the remaining binding at 10 µM [24]?
Answer: 100%

Question: What about the remaining binding at 10 µM [25] of the same compound?
Answer: 96%

Question: And the Antagonism ([26]; 10 uM)?
Answer: 4

Question: And the Agonism ([26]; 12.5 uM)?
Answer: 0

Question: And the remaining binding at 10 µM [27]?
Answer: 100%

Question: Which glutathione levels [28] does the source give for CCc1ccc2c(c1)C1(NN=C(c3ccccc3)S1)C(=O)N2 (centres unmarked) [OGM2] here?
Answer: dramatically reduced glutathione levels

Question: What about the excess cell death [29] of the same compound?
Answer: did not induce excess cell death in zebrafish larvae

Source: US20240327364A1, “THERAPEUTIC TARGETING OF GPR68 TO INDUCE FERROPTOSIS” (University Of Maryland, Baltimore, priority 2023, published 2024)
